Measured values taken from patent US7384629B2, “Biological control of nematodes with Hirsutella minnesotensis” (Regents of the University of Minnesota, priority 2000, dated 2008).
Where two headings read alike, the source gives them in different places.

Experiments:
Hirsutella rhossiliensis [1] = conditions: for Growth rate mm-in-diam, on agar: named vitamin excluded from medium with all other vitamins; for Growth rate mm-in-diam, on agar / Sporulation 10^3/cm^2, on agar / growth in liquit culture (visual rating): 5 weeks; for Spore germination %, on agar / Sporulation 10^3/cm^2, on agar / growth in liquit culture (visual rating): named vitamin excluded
Hirsutella rhossiliensis [2] = assay: Effect of nitrogen source on growth, sporulation and spore germination; conditions: for Growth mm-in-diam, on agar: nitrogen source 0.3296 g/L nitrogen; for Growth mm-in-diam, on agar / growth in liquit culture (visual rating) / Sporulation 10^3/cm^2, on agar: 5 weeks; for Spore germination %, on agar / growth in liquit culture (visual rating) / Sporulation 10^3/cm^2, on agar: nitrogen source

Compound | Growth rate mm-in-diam, on agar (Hirsutella rhossiliensis [1]; isolate ATCC46487) [mm-in-diam] | Growth rate mm-in-diam, on agar (Hirsutella rhossiliensis [1]; isolate JA16-1) [mm-in-diam] | Growth rate mm-in-diam, on agar (Hirsutella rhossiliensis [1]; isolate OWVT-1) [mm-in-diam] | Spore germination %, on agar (Hirsutella rhossiliensis [1]; isolate ATCC46487) [%] | Sporulation 10^3/cm^2, on agar (Hirsutella rhossiliensis [1]; isolate ATCC46487) | Spore germination %, on agar (Hirsutella rhossiliensis [1]; isolate JA16-1) [%] | Sporulation 10^3/cm^2, on agar (Hirsutella rhossiliensis [1]; isolate JA16-1) | growth in liquit culture (visual rating) (Hirsutella rhossiliensis [1]; isolate JA16-1) | Spore germination %, on agar (Hirsutella rhossiliensis [1]; isolate OWVT-1) [%] | Sporulation 10^3/cm^2, on agar (Hirsutella rhossiliensis [1]; isolate OWVT-1) | Spore germination %, on agar (Hirsutella rhossiliensis [2]; isolate ATCC46487) [%] | Spore germination %, on agar (Hirsutella rhossiliensis [2]; isolate JA16-1) [%] | Spore germination %, on agar (Hirsutella rhossiliensis [2]; isolate OWVT-1) [%] | further results
CC(C)(CO)C(O)C(=O)NCCC(=O)O (racemic) [DL-pantothenic acid] | 39.5 | 18.8 | 29.3 | 72.2 | 28.6 10^3/cm^2 | 88.9 | 17.1 10^3/cm^2 | I | 55.6 | 9.9 10^3/cm^2 |  |  |  | 
Nc1nc2ncc(CNc3ccc(C(=O)N[C@@H](CCC(=O)O)C(=O)O)cc3)nc2c(=O)[nH]1 [Folic acid] | 39.3 | 19.7 | 28.7 | 82.2 | 59.7 10^3/cm^2 | 87.8 | 24.2 10^3/cm^2 | I | 61.1 | 15.4 10^3/cm^2 |  |  |  | 
O=C(O)[C@@H]1CCCN1 [L-proline] |  |  |  |  |  |  |  |  |  |  | 86.7 | 86.7 | 60.0 | Growth mm-in-diam, on agar (Hirsutella rhossiliensis [2]; isolate ATCC46487): 47.2 mm-in-diam; Growth mm-in-diam, on agar (Hirsutella rhossiliensis [2]; isolate JA16-1): 17.0 mm-in-diam; Growth mm-in-diam, on agar (Hirsutella rhossiliensis [2]; isolate OWVT-1): 23.8 mm-in-diam; growth in liquit culture (visual rating) (Hirsutella rhossiliensis [2]; isolate OWVT-1): III (III = hyphae growth or colonies form a pellet, less than 2.5 ml)
N[C@@H](Cc1ccc(O)cc1)C(=O)O [L-tyrosine] |  |  |  |  |  |  |  |  |  |  | 91.1 | 86.7 | 67.8 | 
O=[N+]([O-])[O-].[Na+] [NaNO3] |  |  |  |  |  |  |  |  |  |  | 86.7 | 73.3 | 55.6 | Growth mm-in-diam, on agar (Hirsutella rhossiliensis [2]; isolate ATCC46487): 39.2 mm-in-diam; Growth mm-in-diam, on agar (Hirsutella rhossiliensis [2]; isolate JA16-1): 15.3 mm-in-diam; Growth mm-in-diam, on agar (Hirsutella rhossiliensis [2]; isolate OWVT-1): 21.7 mm-in-diam; Sporulation 10^3/cm^2, on agar (Hirsutella rhossiliensis [2]; isolate ATCC46487): 10.0 10^3/cm^2; growth in liquit culture (visual rating) (Hirsutella rhossiliensis [2]; isolate ATCC46487): IV (IV = the pellet diameter larger than 1 cm, but the total volume distribution less than 5 ml); Sporulation 10^3/cm^2, on agar (Hirsutella rhossiliensis [2]; isolate JA16-1): 6.4 10^3/cm^2; growth in liquit culture (visual rating) (Hirsutella rhossiliensis [2]; isolate JA16-1): I; Sporulation 10^3/cm^2, on agar (Hirsutella rhossiliensis [2]; isolate OWVT-1): 35.9 10^3/cm^2
O=C(O)c1cccnc1 [Nicotinic acid] | 40.5 | 20.0 | 27.7 | 77.8 | 30.1 10^3/cm^2 | 94.4 | 12.2 10^3/cm^2 | I | 57.8 | 10.7 10^3/cm^2 |  |  |  | 
Cc1ncc(CO)c(CO)c1O [Pyridoxine (VB6)] | 40.5 | 17.2 | 29.5 | 74.4 | 31.1 10^3/cm^2 | 90.0 | 16.5 10^3/cm^2 | I | 50.0 | 13.0 10^3/cm^2 |  |  |  | growth in liquit culture (visual rating) (Hirsutella rhossiliensis [1]; isolate ATCC46487): III (III = hyphae growth or colonies form a pellet, less than 2.5 ml)
Cc1cc2nc3c(=O)[nH]c(=O)nc-3n(C[C@H](O)[C@H](O)[C@H](O)CO)c2cc1C [Riboflavin, UPS (VB2)] | 41.0 | 20.2 | 30.2 | 91.1 | 30.6 10^3/cm^2 | 85.6 | 13.2 10^3/cm^2 | I | 60.0 | 11.1 10^3/cm^2 |  |  |  | growth in liquit culture (visual rating) (Hirsutella rhossiliensis [1]; isolate OWVT-1): I
Cc1ncc(C[n+]2csc(CCO)c2C)c(N)n1 [Thiamine (VB1)] | 38.5 | 20.3 | 24.7 | 75.6 | 30.1 10^3/cm^2 | 91.1 | 30.4 10^3/cm^2 |  | 58.9 | 15.7 10^3/cm^2 |  |  |  | 
NC(N)=O [Urea] |  |  |  |  |  |  |  |  |  |  | 91.1 | 85.6 | 64.4 | Growth mm-in-diam, on agar (Hirsutella rhossiliensis [2]; isolate ATCC46487): 43.5 mm-in-diam; Growth mm-in-diam, on agar (Hirsutella rhossiliensis [2]; isolate JA16-1): 14.0 mm-in-diam; Growth mm-in-diam, on agar (Hirsutella rhossiliensis [2]; isolate OWVT-1): 16.7 mm-in-diam; growth in liquit culture (visual rating) (Hirsutella rhossiliensis [2]; isolate ATCC46487): IV (IV = the pellet diameter larger than 1 cm, but the total volume distribution less than 5 ml)
O=C(O)CCCC[C@@H]1SC[C@@H]2NC(=O)N[C@@H]21 [d-Biotin (V.H)] | 39.7 | 16.3 | 27.7 | 80.0 | 29.5 10^3/cm^2 | 90.0 | 14.1 10^3/cm^2 | I | 50.0 | 11.7 10^3/cm^2 |  |  |  | 
O[C@H]1[C@H](O)[C@@H](O)[C@H](O)[C@@H](O)[C@H]1O [myo-inositol] | 40.8 | 18.3 | 31.5 | 72.2 | 41.9 10^3/cm^2 | 84.4 | 16.7 10^3/cm^2 | I | 64.4 | 8.3 10^3/cm^2 |  |  |  | 
Nc1ccc(C(=O)O)cc1 [p-Amino-benzoic acid (PABA)] | 41.5 | 16.7 | 28.3 | 82.2 | 29.9 10^3/cm^2 | 84.4 | 35.1 10^3/cm^2 | I | 51.1 | 14.2 10^3/cm^2 |  |  |  | 
Casein |  |  |  |  |  |  |  |  |  |  | 96.7 | 90.0 | 44.4 | Growth mm-in-diam, on agar (Hirsutella rhossiliensis [2]; isolate OWVT-1): 23.0 mm-in-diam; Sporulation 10^3/cm^2, on agar (Hirsutella rhossiliensis [2]; isolate OWVT-1): 43.6 10^3/cm^2
